Columns and labels:
Format in all cases: physicochemical
[1] = Etching (dissolution) rate of deposited layers in IPA/water mixed solvent; settings: IPA 60 wt %; for etching rate of the layer: identical etching conditions
Excerpt: In the present invention, a larger etching rate means a higher dissolution rate. In addition, a larger etching rate means a higher solubility of a layer having a material of interest in the solvent (polar solvent). FIG. 3 is a graph showing thickness changes in the compound 1 and the compound A2 over an etching time. […] On the other hand, the thickness of a layer (layer B) formed of the compound A2 as a heterocyclic compound reduces over time. When the etching rates of the respective layers are calculated with their etching conditions made identical to each other, the etching rate of the layer A is 0.008 nm/sec but the etching rate of the layer B is 0.87 nm/sec, that is, a ratio of the latter to the former is about 100.

[2] = Solubility in IPA/water mixed solvent (FIG. 4); settings: IPA concentration of 80 wt %
Excerpt: The solubility of a compound as a constituent material for each layer in the IPA/water mixed solvent varies depending on the weight ratio of IPA in the mixed solvent. FIG. 4 is a graph showing the solubilities of the compound 1 (fused polycyclic hydrocarbon compound) and the compound A2 (heterocyclic compound) in the IPA/water mixed solvent (polar solvent). Here, in the graph of FIG. 4, the axis of abscissa indicates the weight percent concentration of IPA in the IPA/water mixed solvent, and the axis of ordinate indicates the amount of the fused polycyclic hydrocarbon compound or heterocyclic compound to dissolve in 1 g of the solvent.

[3] = Etching of sacrificial layer by spin washing method (FIG. 6); settings: 60-wt % aqueous solution of IPA; thickness by spectroscopic ellipsometer
Excerpt: The spin washing method involves first dropping a polar solvent 81 onto the sacrificial layer 30 (FIG. 5B), holding the resultant for a predetermined time period (FIG. 5C), then rotating the substrate 10 to splash the polar solvent 81, and drying the substrate 10 by means of the rotation (FIG. 5D). The spin washing method in which the process illustrated in FIGS. 5A to 5D is defined as one cycle is typically repeated a plurality of times. It is to be noted that the polar solvents 81 to be used in the cycle to be performed a plurality of times may be the same every time, or mixed solvents having different compositional ratios may be used in part of the times or every time.
(§1) FIG. 6 is a graph showing a relationship between the total time of etching by the spin washing method and the thickness of the sacrificial layer formed of the compound A2. It is to be noted that in the graph of FIG. 6, the compound A2 is used as a constituent material for the sacrificial layer 30 and a 60-wt % aqueous solution of IPA is used as a polar solvent. […] The thickness of the sacrificial layer was measured with a spectroscopic ellipsometer (HORIBA). […] Although the graph shown in FIG. 6 is merely a specific example, the number of repetition of the process based on the spin washing method can be decided by utilizing the quantitative tendency of the sacrificial layer 30 to reduce shown in FIG. 6.

[4] = Etching of sacrificial layer by dipping method (FIG. 9); settings: 60-wt % aqueous solution of IPA; thickness by spectroscopic ellipsometer
Excerpt: The dipping method is a method involving loading the substrate 10 in a container storing the polar solvent, dipping the substrate 10 in the polar solvent for a certain time period, and then taking the substrate 10 out of the container. Upon dipping of the substrate 10 in the polar solvent, (at least part of) the sacrificial layer 30 is eluted. At this time, when the concentration of the water-soluble polymer material constituting the intermediate layer 40, which can be dissolved together with the sacrificial layer 30, in the polar solvent is low, the polar solvent can be reused as the polar solvent to be used in first dipping.
The dipping method is performed by, for example, a method to be described below. […]
as §1, with “9” for “6”, “dipping” for “spin washing”, “A2.” for “A2. It is to be noted that in the graph of FIG. 6, the compound A2 is used as a constituent material for the sacrificial layer 30 and a 60-wt % aqueous solution of IPA is used as a polar solvent.”, “9. […]” for “6.”

SMILES: CC1(C)c2cc(-c3ccc4ccc5cccc6ccc3c4c56)ccc2-c2ccc(-c3ccc4ccc5cccc6ccc3c4c56)cc21 [compound 1]
- etching rate of the layer [1]: 0.008 nm/s
- amount dissolving in 1 g of the IPA/water mixed solvent [2]: 5 µg

SMILES: CC1(C)c2ccccc2-c2ccc(-c3ccc4ccc5ccc(-c6ccc7c(c6)C(C)(C)c6ccccc6-7)nc5c4n3)cc21 [compound A2]
- rate at which the sacrificial layer is etched by one spin washing [3]: about 6.7 nm
- ratio of etching rate of layer B (compound A2) to layer A (compound 1) [1]: about 100
- etching rate of the layer [1]: 0.87 nm/s
- rate at which the sacrificial layer was etched by the dipping method [4]: 3.7 nm/time
- amount dissolving in 1 g of the IPA/water mixed solvent [2]: 73 µg

Source: patent publication US8969861B2, “Method of manufacturing organic electroluminescence display device” (Canon Kabushiki Kaisha, priority 2012, dated 2015)
